Experimental data reported in article PMC5764437, “Discovery of novel, orally bioavailable, antileishmanial compounds using phenotypic screening” (PLoS Neglected Tropical Diseases, 2017).
“Also recorded” adds a separate entry of the source.

Key:
[1] = Parallel Artificial Membrane Permeability Assay (PAMPA); conditions: pH 7.4
Protocol: Parallel Artificial Membrane Permeability Assay (PAMPA) was conducted by Biomek FX lab automation workstation (Beckman Coulter, Inc.) and PAMPA evolution 96 command software (pION Inc.). A 3 µL aliquot of […] test compound stock in DMSO was mixed with 597 µL of isotonic citrate phosphate buffered saline to make diluted test compound. Diluted test compound (150 µL) was transferred to a UV plate (pION Inc.) and the UV spectrum was read as the reference plate. The membrane on a pre-loaded PAMPA sandwich (pION Inc.) was painted with 4 µL GIT lipid (pION Inc.). The acceptor chamber was then filled with 200 µL acceptor solution buffer, (pION Inc.), and the donor chamber was filled with 180 µL diluted test compound. The PAMPA sandwich was assembled, placed on the Gut-Box and stirred for 30 min. The Aqueous Boundary Layer was set to 40 µm for stirring. The UV spectrum (250-500 nm) of the donor and the acceptor solutions were recorded. The permeability coefficient was calculated using PAMPA Evolution 96 Command software (pION Inc.) based on the AUC of the reference plate, the donor plate and the acceptor plate. All compounds were tested in triplicate.

[2] = Caco-2 permeability assay; format: in vitro ADME; conditions: human, pH 7.4; for Papp A→B at 2 h, 10 μmol/L / Papp B→A at 2 h, 10 μmol/L: Caco-2, mean ± standard deviation of three runs; for Papp A→B at 2 h, 10 μmol/L: read-out: Caco-2 (A→B) permeability coefficient; for Papp B→A at 2 h, 10 μmol/L: read-out: Caco-2 (B→A) permeability coefficient
[3] = Stability in simulated gastric fluid; conditions: simulated gastric fluid with pepsin, pH 1
Protocol: Compound stocks were 10 mM in DMSO. The internal standard was 5 µM warfarin in methanol. […] 1 ml SGF was added to a 1.1 ml 96-well storage plate and mixed well with 10 µl compound stock. The plate was then incubated at 37 °C and shaken at 60 rpm. […] At each time point, 100 µl was removed to a 1 ml storage plate and 300 µl internal standard was added to quench the reaction. […] The compound was detected by SIR and quantification was based on peak area of test compound and the internal standard.

[4] = Liver microsomal stability, human; conditions: both, liver microsomes, pH 7.4
Protocol: One part of 10 mM DMSO compound stock was mixed with 4 parts of acetonitrile to make 2 mM diluted compound stock in DMSO and acetonitrile. 29.1 µL diluted compound stock was added to 2.3 mL liver microsomal solution and vortexed to make microsomal solution with compound. […] For the 0 h time point, 450 µL pre-cooled (4 °C) internal standard (10 µM warfarin in methanol) was added to the first three columns before the reaction was initiated. 1.25 ml of microsome assay solution A (Fisher Scientific, #NC9255727) was combined with 0.25 ml of solution B (Fisher Scientific, #NC9016235) in 3.5 ml of potassium phosphate buffer (0.1 M, pH 7.4). 45 µL of this A+B solution was added to each well of the 96-well storage plate (reaction plate). Liquid in the first 3 columns was moved to another storage plate (quenched plate). The reaction plate was then sealed, incubated at 37 °C, and shaken at a speed of 60 rpm. Time points (0.5 h, 1 h, 2 h) were taken. At each time point, 450 µL pre-cooled internal standard was added to 3 rows in the reaction plate, and the liquid was then transferred to the quenched plate. […] 200 µL supernatant was transferred to a 96-well plate and analyzed by ultra-performance liquid chromatography-mass spectrometry (UPLC-MS) (Waters Inc.). The compounds and internal standard were detected by selected ion recording (SIR).

[5] = Dose-ranging tolerability / 10-day toxicity study in mice; format: in vivo, mouse
Protocol: Drug doses were chosen based on pilot toxicology and pharmacokinetic studies. Female BALB/C mice (compound 4) or C57BL6 (compound 5) of 17–21 grams were purchased from Charles River Laboratories (Wilmington, MA). Food and water were provided ad libitum. Two mice were used as control and another 5 mice were dosed daily via oral gavage (25 mg/kg with compound 4 and 50 mg/kg with compound 5). Every day blood was collected by retro-orbital bleed from one animal from the treatment group for pharmacokinetics. […] Each mouse received two blood collections and glucose measurements over the 10-day course of treatment.

L. mexicana = experiment: Efficacy in murine model of cutaneous leishmaniasis (footpad lesion size); format: in vivo; conditions: BALB/c mice infected with L. mexicana, measured weeks 4–12
Protocol: Female BALB/c mice (~20 g) were injected in one hind footpad with 1 x 10^6 stationary phase promastigotes suspended in 25 μl of phosphate buffered saline (PBS). Four weeks after infection, when a small cutaneous lesion was visible in the injected footpad, cohorts of five mice were treated with either compound or vehicle alone (90 μl), delivered daily for 10 consecutive days by oral gavage using a 20-gauge x 30 mm disposable plastic feeding needle. Vehicle consisted of 10/10/40/39 mixture of ethanol/(PG)/PEG400/PBS plus 1% (weight/volume) 2HβCD (PG is propylene glycol, PEG is polyethylene glycol, 2HβCD is 2-hydroxy-β-cyclodextran). The daily dose for each compound was: compound 4, 25 mg/kg; compound 5, 30 mg/kg; miltefosine, 20 mg/kg. The width of the footpad (top to bottom) was measured with calipers before injection of parasites (day 0) and weekly from weeks 4–12. The width of the uninfected contralateral footpad was also measured each week, and its width was subtracted from that of the infected footpad to determine lesion size.

[6] = 50 mg/kg, 10-day toxicity study

SMILES | Papp at 30 min, 0.05 µM [1] | Papp A→B at 2 h, 10 μmol/L [2] | Papp B→A at 2 h, 10 μmol/L [2] | half-life at 99 µM [3] | half-life at 20 μM [4] | Tolerability of daily oral administration ([5]; daily oral, 25 mg/kg) | Seizures ([5]; oral gavage, 25 mg/kg) | Glucose level ([5]; oral gavage, 25 mg/kg, at Cmax and Cmin) | Seizures / seizure-like behavior ([5]; oral gavage, 50 mg/kg) | Glucose level in plasma ([5]; oral gavage, 50 mg/kg, untreated mice 185–251 mg/dl) | Cutaneous lesion size (footpad width) (L. mexicana; 25 mg/kg daily oral gavage for 10 days from week 4) | efflux ratio at 2 h, 10 μmol/L ([2]; Caco-2, pH 7.4, Papp B→A / Papp A→B) | Food intake [5, 6] | Weight loss [5, 6] | Cutaneous lesion size (footpad width) (L. mexicana; 30 mg/kg daily oral gavage for 10 days from week 4)
COc1ccc(-c2c(C(F)(F)F)oc3c(CN4CCN(C)CC4)c(O)ccc3c2=O)cc1OC [Compound 4] | 375 ×10⁻⁶ cm/s | 49 ± 0.3 ×10⁻⁶ cm/s | 39 ± 0.7 ×10⁻⁶ cm/s | > 48 h | > 4 h | well-tolerated in all study animals; also recorded: No weight loss or other toxicity was observed | no seizures were seen | remained within normal limits | half of the animals exhibited seizure-like behavior | 23 to 40 mg/dL | controlled lesion size at dimensions similar to that at the time of compound dosing (4 weeks) until week 9 | – | – | – | –
Cc1ccc(-c2nc3ccccc3s2)cc1NC(=O)c1cc([N+](=O)[O-])c(N2CCN(C)CC2)cc1Cl [Compound 5] | 237 ×10⁻⁶ cm/s | 16.8 ± 2.4 ×10⁻⁶ cm/s | 32.2 ± 2.9 ×10⁻⁶ cm/s | > 24 h | > 4 h | – | – | – | – | – | – | 1.92 | reduced food intake | more than 10% | controlled lesion size at dimensions similar to that at the time of compound dosing (4 weeks) until week 9
